Experimental data taken from the supplement of paper PMC10627819.

Tests used:
[1] = tested on: B. subtilis 168; test: fitness (endpoint OD595 vs no drug) (fraction); higher = more growth
How it was run: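 At 37 °C, bacteria in TSB, LB Lennox or CY were grown in 384-well plates from a starting OD595 of 0.01. OD595 was measured every 30 min for 14 h, with the first reading used as background. Fitness is the optical density at the switch to stationary phase as a fraction of the robust mean of no-drug control wells, capped at 1.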

[2] = tested on: B. subtilis 168; test: Bliss interaction score (quartile over a dose matrix) (fitness difference); higher = more antagonism (negative = synergy)
How it was run: (§1)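 The Bliss score was calculated by subtracting the expected fitness, the product of single-drug values, from the observed fitness. OD595 at entry into stationary phase, over the plate's robust no-drug mean and capped at 1, served as the fitness readout. Single-drug values were inferred from combination data, and scores are summarised by quartiles across technical, biological and donor/recipient replicates.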

[3] = tested on: S. aureus DSM 20231; test: as above
How it was run: as §1

[4] = tested on: S. aureus Newman; test: as above
How it was run: as §1

[5] = tested on: S. pneumoniae D39V; test: as above
How it was run: as §1
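For Bliss interaction score (quartile over a dose matrix) in this document: first quartile when negative (synergy) and third quartile when positive (antagonism).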

CO/N=C(\C(=O)N[C@@H]1C(=O)N2C(C(=O)O)=C(COC(C)=O)CS[C@H]12)c1csc(N)n1 [Cefotaxime] + CO[C@@H]1[C@@H](OC(N)=O)[C@@H](O)[C@H](Oc2ccc3c(O)c(NC(=O)c4ccc(O)c(CC=C(C)C)c4)c(=O)oc3c2C)OC1(C)C [Novobiocin]
fitness, [1], one replicate
Details | first compound 0.00775 µg/mL | first compound 0.0155 µg/mL | first compound 0.031 µg/mL | first compound 0.0625 µg/mL | first compound 0.125 µg/mL | first compound 0.25 µg/mL
partner 0.05 µg/mL | 0.908 | 0.735 | 0.565 | – | – | –
partner 0.1 µg/mL | 0.955 | 0.715 | 0.563 | – | – | –
partner 0.125 µg/mL | – | – | – | 0.291 | 0.169 | 0.117
partner 0.2 µg/mL | 0.945 | 0.676 | 0.51 | – | – | –
partner 0.25 µg/mL | – | – | – | 0.112 | 0.0673 | 0.0477
partner 0.5 µg/mL | – | – | – | 0.0592 | 0.0517 | 0.0477

fitness, [1]
Details | first compound 0.5 µg/mL | first compound 1 µg/mL | first compound 2 µg/mL
partner 0.0125 µg/mL | 0.27 | 0.122 | 0.127
partner 0.025 µg/mL | 0.275 | 0.135 | 0.131
partner 0.05 µg/mL | 0.276 | 0.153 | 0.142

Details | Bliss interaction score
[2] | 0.097
[3] | 0.0739
[4] | 0.0646
[5] | -0.126

O=C(O)c1cn(C2CC2)c2cc(N3CCNCC3)c(F)cc2c1=O [Ciprofloxacin] + CO[C@@H]1[C@@H](OC(N)=O)[C@@H](O)[C@H](Oc2ccc3c(O)c(NC(=O)c4ccc(O)c(CC=C(C)C)c4)c(=O)oc3c2C)OC1(C)C [Novobiocin]
fitness, [1]
Details | first compound 0.0098 µg/mL | first compound 0.0195 µg/mL | first compound 0.039 µg/mL
partner 0.0125 µg/mL | 0.905 | 0.769 | 0.127
partner 0.025 µg/mL | 0.92 | 0.723 | 0.034
partner 0.05 µg/mL | 0.964 | 0.726 | 0.0487

fitness, [1], one replicate
Details | partner 0.1 µg/mL | partner 0.125 µg/mL | partner 0.2 µg/mL | partner 0.25 µg/mL | partner 0.5 µg/mL
first compound 0.0098 µg/mL | 0.926 | 0.84 | 0.915 | 0.697 | 0.15
first compound 0.0195 µg/mL | 0.727 | 0.78 | 0.71 | 0.448 | 0.066
first compound 0.039 µg/mL | 0.127 | 0.0634 | 0.089 | 0.0302 | 0.0454

Details | Bliss interaction score
[2] | -0.183
[3] | -0.0685
[4] | -0.115
[5] | -0.161

C[C@@H]1O[C@@H]1P(=O)(O)O [Fosfomycin] + CO[C@@H]1[C@@H](OC(N)=O)[C@@H](O)[C@H](Oc2ccc3c(O)c(NC(=O)c4ccc(O)c(CC=C(C)C)c4)c(=O)oc3c2C)OC1(C)C [Novobiocin]
fitness, [1]
Details | first compound 1.562 µg/mL | first compound 3.124 µg/mL | first compound 6.248 µg/mL
partner 0.0125 µg/mL | 0.712 | 0.609 | 0.44
partner 0.025 µg/mL | 0.658 | 0.586 | 0.408
partner 0.05 µg/mL | 0.792 | 0.69 | 0.47

fitness, [1], one replicate
Details | partner 0.1 µg/mL | partner 0.125 µg/mL | partner 0.2 µg/mL | partner 0.25 µg/mL | partner 0.5 µg/mL
first compound 1.562 µg/mL | 0.746 | 0.785 | 0.793 | 0.7 | 0.12
first compound 3.124 µg/mL | 0.698 | 0.782 | 0.691 | 0.637 | 0.0455
first compound 6.248 µg/mL | 0.531 | 0.551 | 0.507 | 0.36 | 0.0252

Details | Bliss interaction score
[2] | -0.0536
[3] | 0.1
[4] | 0.0635
[5] | -0.102

CO/N=C(\C(=O)N[C@@H]1C(=O)N2C(C(=O)O)=C(COC(N)=O)CS[C@H]12)c1ccco1 [Cefuroxime] + CC(=O)NC[C@H]1CN(c2ccc(N3CCOCC3)c(F)c2)C(=O)O1 [Linezolid]
fitness, [1]
Details | first compound 0.04875 µg/mL | first compound 0.0975 µg/mL | first compound 0.195 µg/mL
partner 0.125 µg/mL | 0.532 | 0.526 | 0.423
partner 0.25 µg/mL | 0.293 | 0.261 | 0.0774
partner 0.5 µg/mL | 0.103 | 0.0891 | 0.0749

fitness, [1], one replicate
Details | first compound 0.195 µg/mL | first compound 0.39 µg/mL | first compound 0.78 µg/mL | first compound 1.562 µg/mL | first compound 3.125 µg/mL | first compound 6.25 µg/mL
partner 0.0625 µg/mL | 0.379 | 0.312 | 0.235 | – | – | –
partner 0.125 µg/mL | – | 0.227 | 0.14 | 0.331 | 0.384 | 0.308
partner 0.25 µg/mL | – | 0.0397 | 0.0222 | 0.0445 | 0.0527 | 0.0345
partner 0.5 µg/mL | – | – | – | 0.0242 | 0.0246 | 0.0074

Details | Bliss interaction score
[2] | 0.139
[3] | -0.208
[4] | 0.0749
[5] | 0.079

COc1cccc2c1C(=O)c1c(O)c3c(c(O)c1C2=O)C[C@@](O)(C(=O)CO)C[C@@H]3O[C@H]1C[C@H](N)[C@H](O)[C@H](C)O1 [Doxorubicin] + CO[C@@H]1[C@@H](OC(N)=O)[C@@H](O)[C@H](Oc2ccc3c(O)c(NC(=O)c4ccc(O)c(CC=C(C)C)c4)c(=O)oc3c2C)OC1(C)C [Novobiocin]
fitness, [1]
Details | first compound 0.625 µg/mL | first compound 1.25 µg/mL | first compound 2.5 µg/mL
partner 0.0125 µg/mL | 0.984 | 0.931 | 0.787
partner 0.025 µg/mL | 0.971 | 0.893 | 0.727
partner 0.05 µg/mL | 0.993 | 0.938 | 0.631

fitness, [1], one replicate
Details | partner 0.1 µg/mL | partner 0.125 µg/mL | partner 0.2 µg/mL | partner 0.25 µg/mL | partner 0.5 µg/mL
first compound 0.625 µg/mL | 0.972 | 0.912 | ≥ 1 | 0.793 | 0.516
first compound 1.25 µg/mL | 0.99 | 0.901 | 0.971 | 0.785 | 0.305
first compound 2.5 µg/mL | 0.571 | 0.834 | 0.588 | 0.386 | 0.0091

Details | Bliss interaction score
[2] | 0.0565
[3] | -0.0601
[4] | -0.082
[5] | -0.106

CO/N=C(\C(=O)N[C@@H]1C(=O)N2C(C(=O)O)=C(COC(N)=O)CS[C@H]12)c1ccco1 [Cefuroxime] + CO[C@@H]1[C@@H](OC(N)=O)[C@@H](O)[C@H](Oc2ccc3c(O)c(NC(=O)c4ccc(O)c(CC=C(C)C)c4)c(=O)oc3c2C)OC1(C)C [Novobiocin]
[1], one replicate
Details | fitness
first compound 0.04875 µg/mL, partner 0.0125 µg/mL | ≥ 1
first compound 0.04875 µg/mL, partner 0.025 µg/mL | 0.997
first compound 0.04875 µg/mL, partner 0.1 µg/mL | 0.563
first compound 0.04875 µg/mL, partner 0.2 µg/mL | 0.528
first compound 0.0975 µg/mL, partner 0.0125 µg/mL | 0.824
first compound 0.0975 µg/mL, partner 0.025 µg/mL | 0.893
first compound 0.0975 µg/mL, partner 0.1 µg/mL | 0.483
first compound 0.0975 µg/mL, partner 0.2 µg/mL | 0.429
first compound 0.195 µg/mL, partner 0.0125 µg/mL | 0.756
first compound 0.195 µg/mL, partner 0.025 µg/mL | 0.76
first compound 0.195 µg/mL, partner 0.1 µg/mL | 0.36
first compound 0.195 µg/mL, partner 0.125 µg/mL | 0.133
first compound 0.195 µg/mL, partner 0.2 µg/mL | 0.335
first compound 0.195 µg/mL, partner 0.25 µg/mL | 0.108
first compound 0.195 µg/mL, partner 0.5 µg/mL | 0.017
first compound 0.39 µg/mL, partner 0.125 µg/mL | 0.116
first compound 0.39 µg/mL, partner 0.25 µg/mL | 0.0783
first compound 0.39 µg/mL, partner 0.5 µg/mL | 0
first compound 0.78 µg/mL, partner 0.125 µg/mL | 0.0821
first compound 0.78 µg/mL, partner 0.25 µg/mL | 0.0334
first compound 0.78 µg/mL, partner 0.5 µg/mL | 0.0061
first compound 1.562 µg/mL, partner 0.0125 µg/mL | 0.318
first compound 1.562 µg/mL, partner 0.025 µg/mL | 0.274
first compound 1.562 µg/mL, partner 0.05 µg/mL | 0.263
first compound 3.125 µg/mL, partner 0.0125 µg/mL | 0.264
first compound 3.125 µg/mL, partner 0.025 µg/mL | 0.23
first compound 3.125 µg/mL, partner 0.05 µg/mL | 0.189
first compound 6.25 µg/mL, partner 0.0125 µg/mL | 0.249
first compound 6.25 µg/mL, partner 0.025 µg/mL | 0.178
first compound 6.25 µg/mL, partner 0.05 µg/mL | 0.159

[1], partner 0.05 µg/mL
Details | fitness
first compound 0.0975 µg/mL | 0.665
first compound 0.195 µg/mL | 0.555

Details | Bliss interaction score
[2] | -0.0729
[3] | 0.119
[4] | -0.131
[5] | 0.0773

CO/N=C(\C(=O)N[C@@H]1C(=O)N2C(C(=O)O)=C(COC(N)=O)CS[C@H]12)c1ccco1 [Cefuroxime] + CN(C)C(=O)C(CCN1CCC(O)(c2ccc(Cl)cc2)CC1)(c1ccccc1)c1ccccc1 [Loperamide]
fitness, [1]
Details | first compound 0.04875 µg/mL | first compound 0.0975 µg/mL | first compound 0.195 µg/mL
partner 50 µg/mL | 0.0325 | 0.0377 | 0.0259
partner 100 µg/mL | 0.0294 | 0.0312 | 0.0385

fitness, [1], one replicate
Details | first compound 1.562 µg/mL | first compound 3.125 µg/mL | first compound 6.25 µg/mL
partner 25 µg/mL | 0.0361 | 0.0294 | 0.0192
partner 50 µg/mL | 0.0196 | 0.033 | 0.0196
partner 100 µg/mL | 0.012 | 0.0049 | 0.0099

Details | Bliss interaction score
[2] | -0.12
[3] | -0.521
[4] | -0.0645
[5] | -0.0403

Cc1ncc([N+](=O)[O-])n1CCO [Metronidazole] + CO[C@@H]1[C@@H](OC(N)=O)[C@@H](O)[C@H](Oc2ccc3c(O)c(NC(=O)c4ccc(O)c(CC=C(C)C)c4)c(=O)oc3c2C)OC1(C)C [Novobiocin]
fitness, [1]
Details | first compound 0.625 µg/mL | first compound 1.25 µg/mL | first compound 2.5 µg/mL
partner 0.0125 µg/mL | 0.969 | 0.954 | 0.968
partner 0.025 µg/mL | 0.998 | 0.977 | 0.986
partner 0.05 µg/mL | 0.969 | 0.977 | 0.98

fitness, [1], one replicate
Details | first compound 0.625 µg/mL | first compound 1.25 µg/mL | first compound 2.5 µg/mL
partner 0.125 µg/mL | ≥ 1 | 0.958 | 0.915
partner 0.25 µg/mL | 0.923 | 0.916 | 0.908
partner 0.5 µg/mL | 0.584 | 0.633 | 0.552

Details | Bliss interaction score
[2] | 0.072
[3] | 0.0355
[4] | 0.05
[5] | 0.126
